Test results from US8637525B2, “Compounds for the reduction of beta-amyloid production” (Bristol-Myers Squibb Company, priority 2009, dated 2014).

What follows are molecules tested on Aβ1-42 production (assay: Cellular assay for inhibition of Aβ1-42 production (H4 APP751 SWE clone 8.20)). Details: 19 h, H4 APP751 SWE clone 8.20 cells, 19 h incubation; class symbols; read-out: Activity Rating (Aβ42 cellular IC50).
Type: cell-based
Procedure, shortened: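 Viewlux signal read-out; IC50 by curve fit. Sandwich: 565 anti-Aβ42 neoepitope (Wallac conjugate, 0.8 ng/well) + 26D6 anti-N-terminus (APC, 75 ng/well), in Tris-HCl 40 mM pH 7.4/0.2% BSA, o/n 4 °C. Cells exposed to compound 19 h, 37 °C, 5% CO2.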
For `CCNc1nc(Nc2ccc(-n3cnc(Cl)c3)c(OC)c2)nc2c1CCOC2c1ccc(F)cc1` (racemic) [Example 88, N2-(4-(4-chloro-1H-imidazol-1-yl)-3-methoxyphenyl)-N4-ethyl-8-(4-fluorophenyl)-6,8-dihydro-5H-pyrano[3,4-d]pyrimidine-2,4-diamine], the IC50 was 10 to 100 nM. For `COc1cc(Nc2nc3c(c(N4CC(F)(F)C4)n2)COCC3c2ccc(F)cc2)ccc1-n1cnc(Cl)c1` (racemic) [Example 63, N-(4-(4-chloro-1H-imidazol-1-yl)-3-methoxyphenyl)-4-(3,3-difluoroazetidin-1-yl)-8-(4-fluorophenyl)-7,8-dihydro-5H-pyrano[4,3-d]pyrimidin-2-amine], the IC50 was 10 to 100 nM. For `COc1cc(Nc2nc3c(c(N4CCC4)n2)CCC3c2ccccc2)ccc1-n1cnc(Cl)c1` (stereo not shown) [Example 6, 4-(Azetidin-1-yl)-N-(4-(4-chloro-1H-imidazol-1-yl)-3-methoxyphenyl)-7-phenyl-6,7-dihydro-5H-cyclopenta[d]pyrimidin-2-amine], the IC50 was 10 to 100 nM. In the case of `CNc1nc(Nc2ccc3c(c2)CCNC3)nc2c1CCC2c1ccccc1` (stereo not shown) [Example 245, N4-methyl-7-phenyl-N2-(1,2,3,4-tetrahydroisoquinolin-6-yl)-6,7-dihydro-5H-cyclopenta[d]pyrimidine-2,4-diamine], the IC50 is reported as > 1000 nM. `CNc1nc(Nc2ccc3occc3c2)nc2c1CCC2c1ccccc1` (stereo not shown) [Example 250, N2-(benzofuran-5-yl)-N4-methyl-7-phenyl-6,7-dihydro-5H-cyclopenta[d]pyrimidine-2,4-diamine] was tested, and the IC50 was > 1000 nM. Molecule `CNc1nc(Nc2ccc(-n3cnc(C)n3)c(F)c2)nc2c1CCOC2c1ccccc1` (stereo not shown) [Example 86, N2-(3-fluoro-4-(3-methyl-1H-1,2,4-triazol-1-yl)phenyl)-N4-methyl-8-phenyl-6,8-dihydro-5H-pyrano[3,4-d]pyrimidine-2,4-diamine] has an IC50 of 10 to 100 nM. In the case of `COc1cc(Nc2nc3c(c(N4CC(F)(F)C4)n2)CCC3c2ccc(OC(F)(F)F)cc2)ccc1-n1cnc(Cl)c1` (single isomer, unassigned) [Example 99A, N-(4-(4-chloro-1H-imidazol-1-yl)-3-methoxyphenyl)-4-(3,3-difluoroazetidin-1-yl)-7-(4-(trifluoromethoxy)phenyl)-6,7-dihydro-5H-cyclopenta[d]pyrimidin-2-amine], the IC50 is reported as 10 to 100 nM. `CNc1nc(Nc2ccc(-n3ncnc3C)c(F)c2)nc2c1CCC2c1ccc(F)cc1` (single isomer, unassigned) [Example 26A, N^2-(3-fluoro-4-(5-methyl-1H-1,2,4-triazol-1-yl)phenyl)-7-(4-fluorophenyl)-N^4-methyl-6,7-dihydro-5H-cyclopenta[d]pyrimidine-2,4-diamine] showed an IC50 of 10 to 100 nM. `CNc1nc(Nc2ccc(-c3ccnc(C)c3)c(OC)c2)nc2c1CCC2c1ccccc1` (stereo not shown) [Example 261, N2-(3-methoxy-4-(2-methylpyridin-4-yl)phenyl)-N4-methyl-7-phenyl-6,7-dihydro-5H-cyclopenta[d]pyrimidine-2,4-diamine] was tested, and the IC50 was 1.5 to 9.9 nM. For `COc1cc(Nc2nc3c(c(N4CCC(F)(F)C4)n2)CCC3c2cc(F)c(F)c(F)c2)ccc1-n1cnc(Cl)c1` (racemic) [Example 107, N-(4-(4-Chloro-1H-imidazol-1-yl)-3-methoxyphenyl)-4-(3,3-difluoropyrrolidin-1-yl)-7-(3,4,5-trifluorophenyl)-6,7-dihydro-5H-cyclopenta[d]pyrimidin-2-amine], the IC50 was 10 to 100 nM. For `Cc1ccc(C(C)C)cc1Nc1nc(Nc2ccc(C#N)cc2)nc2c1CCC2c1ccccc1` (stereo not shown) [Example 215A, 4-(4-(5-isopropyl-2-methylphenylamino)-7-phenyl-6,7-dihydro-5H-cyclopenta[d]pyrimidin-2-ylamino)benzonitrile], the IC50 was > 1000 nM.

Same assay, conditions: 19 h, H4 APP751 SWE clone 8.20 cells, 19 h incubation; read-out: Activity Rating (Aβ42 cellular IC50), numeric value
Work on `CNc1nc(Nc2ccc(-n3cnc(Cl)c3)c(OC)c2)nc2c1COC2c1ccc(F)cc1` (single isomer, unassigned) [Example 79A, N^2-(4-(4-chloro-1H-imidazol-1-yl)-3-methoxyphenyl)-7-(4-fluorophenyl)-N^4-methyl-5,7-dihydrofuro[3,4-d]pyrimidine-2,4-diamine] yielded an IC50 of 5.8 nM. Molecule `COc1cc(Nc2nc3c(c(N4CC(F)(F)C4)n2)CCC3c2ccc(F)cc2)ccc1-n1cnc(Cl)n1` (single isomer, unassigned) [Example 17A, N-(4-(3-chloro-1H-1,2,4-triazol-1-yl)-3-methoxyphenyl)-4-(3,3-difluoroazetidin-1-yl)-7-(4-fluorophenyl)-6,7-dihydro-5H-cyclopenta[d]pyrimidin-2-amine] has an IC50 of 120 nM. `CNc1nc(Nc2ccc(-n3ncnc3C)c(F)c2)nc2c1CCOC2c1ccccc1` (stereo not shown) [Example 87, N2-(3-fluoro-4-(5-methyl-1H-1,2,4-triazol-1-yl)phenyl)-N4-methyl-8-phenyl-6,8-dihydro-5H-pyrano[3,4-d]pyrimidine-2,4-diamine] gave an IC50 of 60 nM. With `CCNc1nc(Nc2ccc(-n3cnc(Cl)c3)c(OC)c2)nc2c1CN(C(=O)C1CC1)CC2c1ccccc1` (stereo not shown) [Example 132A, (2-(4-(4-chloro-1H-imidazol-1-yl)-3-methoxyphenylamino)-4-(ethylamino)-8-phenyl-7,8-dihydropyrido[4,3-d]pyrimidin-6(5H)-yl)(cyclopropyl)methanone] the IC50 was 15 nM. For `CNc1nc(Nc2ccc(-n3cnc(C)n3)c(OC)c2)nc2c1CN(C)CC2c1ccc(F)cc1` (stereo not shown) [Example 198B, 8-(4-fluorophenyl)-N2-(3-methoxy-4-(3-methyl-1H-1,2,4-triazol-1-yl)phenyl)-N4,6-dimethyl-5,6,7,8-tetrahydropyrido[4,3-d]pyrimidine-2,4-diamine], the IC50 was 15 nM. For `COc1cc(Nc2nc3c(c(N4C[C@@H](C)O[C@@H](C)C4)n2)COC3c2ccc(F)cc2)ccc1-n1cnc(Cl)c1` (stereo partly drawn) [Example 84B, N-(4-(4-chloro-1H-imidazol-1-yl)-3-methoxyphenyl)-4-((2S,6R)-2,6-dimethylmorpholino)-7-(4-fluorophenyl)-5,7-dihydrofuro[3,4-d]pyrimidin-2-amine], the IC50 was 290 nM. `CCNc1nc(Nc2ccc(-n3cnc(Cl)c3)c(OC)c2)nc2c1CN(S(C)(=O)=O)CC2c1ccccc1` (stereo not shown) [Example 134A, N2-(4-(4-chloro-1H-imidazol-1-yl)-3-methoxyphenyl)-N4-ethyl-6-(methylsulfonyl)-8-phenyl-5,6,7,8-tetrahydropyrido[4,3-d]pyrimidine-2,4-diamine] showed an IC50 of 3.6 nM.

Same assay, conditions: H4 APP751 SWE clone 8.20 cells, 19 h incubation; class symbols; read-out: Activity Rating (Aβ42 cellular IC50)
With `CNc1nc(Nc2ccc(-n3cnc(Cl)c3)c(OC)c2)nc2c1CN(S(C)(=O)=O)CC2c1ccc(F)cc1` (stereo not shown) [Example 154A, N2-(4-(4-chloro-1H-imidazol-1-yl)-3-methoxyphenyl)-8-(4-fluorophenyl)-N4-methyl-6-(methylsulfonyl)-5,6,7,8-tetrahydropyrido[4,3-d]pyrimidine-2,4-diamine] the IC50 was 1.5 to 9.9 nM. `CNc1nc(Nc2ccc(-n3cnc(Cl)c3)c(OC)c2)nc2c1CCC2c1ccc(OC(F)(F)F)cc1` (single isomer, unassigned) [Example 97A, N^2-(4-(4-chloro-1H-imidazol-1-yl)-3-methoxyphenyl)-N^4-methyl-7-(4-(trifluoromethoxy)phenyl)-6,7-dihydro-5H-cyclopenta[d]pyrimidine-2,4-diamine] showed an IC50 of 1.5 to 9.9 nM. With `CNc1nc(Nc2ccc(-n3ncnc3C)c(F)c2)nc2c1CCC2c1ccc(F)cc1` (single isomer, unassigned) [Example 26B, N^2-(3-fluoro-4-(5-methyl-1H-1,2,4-triazol-1-yl)phenyl)-7-(4-fluorophenyl)-N^4-methyl-6,7-dihydro-5H-cyclopenta[d]pyrimidine-2,4-diamine] the IC50 was 10 to 100 nM. `COc1cc(Nc2nc3c(c(N4CC(F)C4)n2)CCC3c2ccccc2)ccc1-n1cnc(Cl)c1` (stereo not shown) [Example 182B, N-(4-(4-chloro-1H-imidazol-1-yl)-3-methoxyphenyl)-4-(3-fluoroazetidin-1-yl)-7-phenyl-6,7-dihydro-5H-cyclopenta[d]pyrimidin-2-amine] showed an IC50 of 10 to 100 nM. `CCNc1nc(Nc2ccc(-n3cnc(Cl)c3)c(OC)c2)nc2c1COC2c1ccc(F)cc1` (single isomer, unassigned) [Example 75A, N^2-(4-(4-chloro-1H-imidazol-1-yl)-3-methoxyphenyl)-N^4-ethyl-7-(4-fluorophenyl)-5,7-dihydrofuro[3,4-d]pyrimidine-2,4-diamine] gave an IC50 of 1.5 to 9.9 nM. With `COc1cc(Nc2nc3c(c(N(C)C)n2)COCC3c2ccc(F)cc2)ccc1-n1cnc(Cl)c1` (stereo not shown) [Example 61A, N2-(4-(4-chloro-1H-imidazol-1-yl)-3-methoxyphenyl)-8-(4-fluorophenyl)-N4,N4-dimethyl-7,8-dihydro-5H-pyrano[4,3-d]pyrimidine-2,4-diamine] the IC50 was 1.5 to 9.9 nM. Work on `COc1cc(Nc2nc(N[C@@H](C)C3CC3)c3c(n2)C(c2ccc(F)cc2)CC3)ccc1-n1cnc(Cl)c1` (single isomer, unassigned) [Example 50A] yielded an IC50 of 1.5 to 9.9 nM. `CCNc1nc(Nc2ccc(-n3cnc(Cl)c3)c(OC)c2)nc2c1COCC2c1ccc(F)c(F)c1` (stereo not shown) [Example 113B, N2-(4-(4-chloro-1H-imidazol-1-yl)-3-methoxyphenyl)-8-(3,4-difluorophenyl)-N4-ethyl-7,8-dihydro-5H-pyrano[4,3-d]pyrimidine-2,4-diamine] showed an IC50 of 10 to 100 nM. Work on `CNc1nc(Nc2ccc(-n3cnc(C)n3)c(OC)c2)nc2c1CCC2c1ccc(F)cc1F` (single isomer, unassigned) [Example 193A, 7-(2,4-difluorophenyl)-N2-(3-methoxy-4-(3-methyl-1H-1,2,4-triazol-1-yl)phenyl)-N4-methyl-6,7-dihydro-5H-cyclopenta[d]pyrimidine-2,4-diamine] yielded an IC50 of 100 to 1000 nM.

Same assay, conditions: H4 APP751 SWE clone 8.20 cells, 19 h incubation; read-out: Activity Rating (Aβ42 cellular IC50), numeric value
Work on `COc1cc(Nc2nc3c(c(N4CC(C)(OC)C4)n2)CCC3c2ccc(F)cc2)ccc1-n1cnc(C)n1` (stereo not shown) [Example 192B, 7-(4-fluorophenyl)-4-(3-methoxy-3-methylazetidin-1-yl)-N-(3-methoxy-4-(3-methyl-1H-1,2,4-triazol-1-yl)phenyl)-6,7-dihydro-5H-cyclopenta[d]pyrimidin-2-amine] yielded an IC50 of 16 nM.
